Target: T1, RcCUT1 (MBP-RcCUT1) (Ceratobasidium cereale, UniProt A0A346Q044)
T1 construct: E. coli BL21 (DE3); amylose resin; about 63 kDa on SDS-PAGE
Assay: spectrophotometric p-nitrophenol release at […] nm
Assay type: biochemical
Details: 1 mM substrate; 20 mM Tris-HCl, 10 mM NaCl, 50 mM sodium taurodeoxycholate, pH 8.0, 20 °C; MBP-tag alone inactive

T1 sequence (A0A346Q044 entry or part of it): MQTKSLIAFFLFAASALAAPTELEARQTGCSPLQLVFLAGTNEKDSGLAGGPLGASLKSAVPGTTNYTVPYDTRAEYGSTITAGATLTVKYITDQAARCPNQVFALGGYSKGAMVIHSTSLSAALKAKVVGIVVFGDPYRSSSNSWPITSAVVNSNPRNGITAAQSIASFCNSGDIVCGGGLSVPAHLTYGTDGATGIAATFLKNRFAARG

`CCCC(=O)Oc1ccc([N+](=O)[O-])cc1` [p-nitrophenyl butyrate] was tested, and the “spectrophotometric p-nitrophenol release at 405 nm” value was “the purified MBP-RcCUT1 had the enzymatic activity for hydrolyzing pNPB substrate”.

From publication PMC6091245, “Genome-Wide Identification and Expression Analysis of Cutinase Gene Family in Rhizoctonia cerealis and Functional Study of an Active Cutinase RcCUT1 in the Fungal–Wheat Interaction” (Frontiers in Microbiology, 2018)
